Measured values published in patent publication US9995731B2, “Construction of mitochondrial UQCRB mutant expressing cells and utilization of the cells for UQCRB assay system thereof” (INDUSTRY-ACADEMIC COOPERATION FOUNDATION, YONSEI UNIVERSITY, priority 2014, dated 2018).

What was measured:
Format in all cases: cell-based, human
[1] = tested on: UQCRB MT1 cells; assay: Measurement of mROS levels with MitoSOX in UQCRB MT1 cells; details: terpestacin 20 μM for 1 h
Text: (§1) FIG. 4A-4F Pro-angiogenic activity of UQCRB mutant stable cell lines and its regulation by UQCRB inhibitors. (4A) Pro-angiogenic activity of a UQCRB mutant through conditioned media (CM)-induced invasion of HUVECs. (4B) Effect of a UQCRB mutation on cell migration; black lines indicate the edge of the gap. (4C) Optical density levels of the colony formation assay by using UQCRB mutant stable cell lines or controls. (4D, 4E) Growth of the UQCRB mutant stable cell lines regulated by the UQCRB inhibitors terpestacin (T) and A1938 (A). Cells were treated with terpestacin (50 μM) or A1938 (10 μM) in a time-dependent manner. Cell growth was measured by the MTT colorimetric assay. (4F) Suppression of elevated mROS by terpestacin in UQCRB MT1 cells. mROS were measured using MitoSOX™. […]
mROS levels were assessed by the red fluorescence mitochondrial superoxide indicator MitoSOX™ (Invitrogen, Grand Island, N.Y.). […] Results of MitoSOX™ and Hoechst staining were analyzed under a confocal microscope (Zeiss LSM 710; Carl Zeiss Microlmaging, Thornwood, N.Y.), and the fluorescence intensity of MitoSOX™ was measured by ImageJ.
(§2) Since UQCRB is a molecular target of the natural compound terpestacin [6], we examined the effect of terpestacin on UQCRB mutant stable cell lines. To test whether terpestacin affects MT1 and MT2, cell growth was measured with or without terpestacin for 3 days. […]

[2] = tested on: Control (HEK293) cells; assay: Cell proliferation assay (MTT colorimetric), control cells; details: terpestacin 50 μM, 3 days
Text: as §1, with “MitoSOX™. Terpestacin (20 μM) was applied to UQCRB MT1 cells for 1 h; scale bars indicate 20 μm.” for “MitoSOX™.”
(§3) Control and mutant stable cell lines were seeded onto 96-well plates and incubated for 24-72 h. Proliferation of the cells was measured using a 3-(4,5-dimethylthiazol-2-yl)-2,5-diphenyltetrazolium bromide (MTT; Sigma-Aldrich, Saint Louis, Mo.) colorimetric assay.
as §2

[3] = tested on: UQCRB mutant stable cell line MT1; assay: Cell proliferation assay (MTT colorimetric), UQCRB mutant stable cell line MT1; details: MT1 cells, terpestacin 50 μM, with or without terpestacin for 3 days
Text: as §1, with “MitoSOX™. Terpestacin (20 μM) was applied to UQCRB MT1 cells for 1 h; scale bars indicate 20 μm.” for “MitoSOX™.”
as §3, §2

[4] = tested on: UQCRB mutant stable cell line MT2; assay: Cell proliferation assay (MTT colorimetric), UQCRB mutant stable cell line MT2; details: MT2 cells, terpestacin 50 μM, with or without terpestacin for 3 days
Text: as §1, with “MitoSOX™. Terpestacin (20 μM) was applied to UQCRB MT1 cells for 1 h; scale bars indicate 20 μm.” for “MitoSOX™.”
as §3, §2

For C/C1=C\C[C@]2(C)C(=O)C(O)=C([C@H](C)CO)[C@H]2C/C=C(\C)[C@@H](O)CC/C(C)=C/CC1 [terpestacin], the “effect on elevated mROS (MitoSOX fluorescence)” value [1] was “attenuated mROS induction in MT1 to a basal level”, the “effect on proliferation (cell growth, MTT)” value (“effect on proliferation” for short) [2] was “did not affect the proliferation” and the “effect on proliferation” value [3] was “remarkably inhibited proliferation”. For the same compound, the “effect on proliferation” value [4] was “remarkably inhibited proliferation”.
